According to patent US8309536B2, “Implant improving local bone formation” (priority 2005, dated 2012):
Several values for one entry are separate records, joined by “and”; a condition that tells them apart may be missing. Equal values may be shown once.

Tests used:
[1] = system: human (MG-63) osteoblastic cells; conditions: Peter et al 2004; cited from earlier work
[2] = system: canine ulnar intramedullary implant model; assay: Canine ulnar intramedullary implant model, single intravenous dose of ZA, porous tantalum rods implanted for 6 weeks; type: in vivo
Experimental: The hypothesis that bisphosphonates have a positive effect on net bone growth, particularly into porous implants, was first confirmed by conducting a canine ulnar intramedullary implant model in which porous tantalum rods were implanted for 6 weeks. (Bobyn J D, Tanzer M, Harvey EJ, Krygier JJ, Little DG. J Bone Joint Surg (Br), 2005) Immediately after surgery, seven test animals with 14 ulnar implants were administered a single intravenous dose of 0.1 mg/kg ZA (Novartis Pharma A G, Basel, Switzerland). Because of the systemic exposure of test animals to ZA it was necessary to utilize external control data from a prior experiment (Tanzer M, Kantor S, Bobyn J D. J Arthrop 19:195-199, 2002) for comparisons of bone ingrowth. The mean extent of bone ingrowth was 6.6% for the control implants and 12.2% for the ZA-treated implants, a relative difference of 85% that was statistically significant.

[3] = system: canine ulnar intramedullary implant model; assay: Canine ulnar intramedullary implant model, HA coated porous tantalum implants dosed with ZA (local delivery), 12 weeks, quantitative histology; type: in vivo, dog; conditions: total ZA doses of 0.2 mg and 0.4 mg, relative to 0.05 mg
[4] = system: murine (MC3T3) osteoblastic cells; conditions: Peter et al 2004; cited from earlier work
[5] = ZA elution from porous tantalum implants in saline, assayed by UV spectrophotometry; type: physicochemical; conditions: for percent of the ZA released: HA-coated implant dosed with 0.05 mg ZA
Source text: Assay of ZA Elution. Assays of ZA in solution were achieved using UV spectrophotometry. Bisphosphonates on their own lack a detectable chromophore, making them difficult to assay by simple conventional analytical methods. However, the metal chelating properties of bisphosphonates are well known. When bisphosphonates complex with certain metal ions, a chromophore with suitable. UV activity for spectrophotometric analysis is created (Ostovic D, Stelmach C, Hulshizer B. Pharmaceutical Research. 10:470-472, 1993). The method for assaying ZA in aqueous-based solutions is based on the formation of a ZA complex with iron (III) ions (Kuljanin J, Jankovic I, Nedeljkovic J, Prstojevic D, Marinkovic V. Journal of Pharmaceutical and Biomedical Analysis. 28:1215-1220, 2002). Of the three components in the prescription drug Zometa™ (ZA, mannitol, and sodium citrate), only ZA forms a complex with iron (III) ions. A standard solution of iron (III) chloride in perchloric acid is added to known concentrations of Zometa™ and the absorbance is measured at 290 nm to create a calibration curve. A highly acidic medium is needed to prevent the hydrolysis of the iron (III) ions. Aliquots of the soak solution from the Zometa™-coated implants can be analyzed by adding the standard iron (III) chloride solution to the soak solution and measuring the absorbance at 290 nm. By measuring the absorbance, the concentration of the sample can be calculated and thus the mass of the drug released from the implant for a given time period can be determined.
Four porous tantalum implants with and without HA coating were deposited with 0.05 mg of ZA as described. For each implant group, elution characteristics were ascertained by immersing each implant in a test tube containing 5 ml of 0.9% saline at […]. At mutiple test intervals (1 min, 3 min, 5 min, 10 min, 15 min, 30 min, 1 hr, 6 hrs, 12 hrs, 1 day, 3 days, 7 days, 14 days, 21 days, 42 days, 84 days, and 98 days), the implant was removed from the test tube, the saline was thoroughly mixed, and aliquots were removed for ZA assays using UV spectrophotometry. After each time interval for each implant, the implant was placed in a test tube with fresh replacement of 5 ml of saline. This elution model avoided build up of boundary layers and more closely resembled a dynamic system. The 84-day assay time corresponded to the 12 week length of the in vivo implant studies. Assays ceased once the total amount of ZA was released.

[6] = system: canine ulnar intramedullary implant model; assay: Canine ulnar intramedullary implant model, HA coated porous tantalum implants dosed with ZA (local delivery), 12 weeks, quantitative histology; type: in vivo, dog
Source text: In Vivo Studies. The previously described canine ulnar intramedullary implant model was utilized (study approved by institutional review board) (Bobyn J D, Tanzer M, Harvey EJ, Krygier JJ, Little DG. J Bone Joint Surg (Br), In press, 2005). The surgical procedure involved anesthetizing the dog with a general anesthesia and under sterile conditions exposing the proximal ulna. A two-centimeter incision was made over the olecranon process and the triceps tendon was split by sharp dissection down to bone. Under fluoroscopic guidance, a 5.0 mm drill was oriented along the long axis of the ulna and in line with the intramedullary canal. A 5.5 cm long hole was drilled under fluoroscopy to ensure the proper orientation of the drill hole and to prevent cortical penetration. The porous implant was then tapped down the intramedullary canal of the ulna with a punch and mallet. The implant was slightly countersunk to avoid postoperative irritation of the overlying triceps tendon. The wound was irrigated and closed in a standard fashion. The procedure was repeated on the contralateral side. Positioning of the implants inevitably varied somewhat in terms of depth of insertion within the canal and spatial orientation within the canal. […] Each dog received either two control HA coated implants without ZA or two HA coated implants dosed with 0.05 mg ZA. Five control dogs and four with ZA-dosed implants were studied at 12 weeks. This protocol was utilized instead of one with a control and a ZA-dosed implant in each animal because it avoided the possibility of systemic absorption of ZA from one side and influence of a control implant on the other side.
Histological examination. After sacrifice, the ulnae were harvested, stripped of soft tissue, radiographed and processed for undecalcified hard-section histology (FIG. 6). This involved dehydration in ascending solutions of ethanol, defatting in ether and acetone, and embedding in methylmethacrylate. Each implant was cut transversely into 6 or 7 sections at 7-8 mm intervals. The sections were radiographed and polished, sputter coated with gold-palladium, and imaged with backscattered scanning electron microscopy. For each section, computerized image analysis based on grey level discrimination was used to identify bone and implant and to generate quantitative information on the extent of bone ingrowth, defined as the percentage of the available porosity that was filled with new bone. Also tabulated in each section was the number and size of the individual islands of bone within the implant pores. In sections cut through the ulnar diaphysis, where delineation of the endosteal cortex was clearly evident, the total area of peri-implant bone contained within the intramedullary canal was also tabulated. In these calculations the implant area (and bone within) was not included. For each section, the peri-implant bone was expressed as a percentage of the total peri-implant area within the intramedullary canal (not including the implant).
Statistical analysis. The quantitative histological data were statistically analyzed using multiple two-level hierarchical models. At the first level of the model, the set of results from the limbs of each dog was assumed to follow a normal distribution with dog-specific means and a global variance parameter. At the second level of the model, the means from each dog in each group (control, ZA-dosed) from the first level followed a second normal distribution, with the mean representing the overall mean for the treatment or control groups and the variance representing the variability within the group. A similar statistical model was also run where the results for each dog were allowed to vary with the distance (section level) along the ulna. […] The mean values and differences between means for control and ZA-dosed implants were estimated with 95% confidence intervals (CI).

distraction osteogenesis = conditions: cited from earlier work
regenerate bone / callus = conditions: Smith et al 2003; net bone accumulation due to increased retention of callus; cited from earlier work
bone resorption = conditions: cited from earlier work; for potency at inhibiting bone resorption relative to second generation bisphosphonates (in words): third generation bisphosphonates which contain a tertiary nitrogen
alveolar bone resorption = conditions: local application following periodontal surgery in rats; cited from earlier work
[7] = system: soft tissue formation at implant site; conditions: single application via a sponge to an implant site, rat; cited from earlier work
[8] = system: knee prostheses migration; conditions: early postoperative oral regimen, radiostereometry; cited from earlier work
[9] = individual ZA dogs 1-4, 0.05 mg ZA, 12 weeks

Structure (SMILES): O=P(O)(O)C(O)(Cn1ccnc1)P(=O)(O)O [ZA, zoledronic acid]
- concentration below which ZA can be considered safe for cellular activity [1]: below 10 μM
- average bone island size larger in the ZA-treated group ([2]; 0.1 mg/kg ZA intravenous): 69%
- relative difference in bone ingrowth, ZA-treated vs external control implants ([2]; 0.1 mg/kg ZA intravenous, statistically significant): 85%
- mean extent of bone ingrowth ([2]; single intravenous dose of 0.1 mg/kg ZA, 14 ulnar implants, own earlier published study): 12.2%
- kind of the additional bone formed at higher doses [3]: woven bone
- concentration below which ZA can be considered safe for cellular activity [4]: below 10 μM
- percent of the ZA released ([5]; 0.9% saline, after soaking for 6 weeks): ~95%
- percent of the ZA released ([5]; 0.9% saline, within 1 hour): about 65%
- release of zoledronic acid in saline (in words, FIG. 7) ([5]; implants without HA coating compared to those with HA coating, 0.05 mg): rapid and complete release
- time within which all of the ZA was released ([5]; non-HA coated porous tantalum implant dosed with 0.05 mg ZA, 0.9% saline): ≤ 1 h
- more net bone growth into ZA-dosed implants compared with controls, relative ([6]; 0.05 mg ZA, 12 weeks): 58%
- peri-implant bone around ZA-dosed implants relative to controls ([6]; 0.05 mg ZA, 12 weeks): 2.3 times
- peri-implant bone on contact radiographs, ZA-dosed vs control implants (in words) ([6]; 0.05 mg ZA, 12 weeks): almost always more dense and/or abundant
- relative difference in the size of the bone islands, ZA-dosed vs control ([6]; 0.05 mg ZA, 12 weeks): 71%
- Bone Island Size, overall Mean (95% CI) ([6]; 0.05 mg ZA, 12 weeks, 54 sections, 8 implants): 0.023 (0.016 to 0.031) mm^2
- bone islands larger in the ZA-dosed implants than in controls, difference ([6]; 0.05 mg ZA, 12 weeks, 95% CI 0.001 to 0.017): 0.009 mm^2
- difference of the means of peri-implant bone filling, ZA-dosed vs control ([6]; 0.05 mg ZA, 12 weeks, 95% CI 3.3 to 33.7): 18.4%
- difference in mean extent of bone ingrowth, ZA-dosed vs control ([6]; 0.05 mg ZA, 12 weeks, 95% CI 3.5 to 11.1): 7.3%
- histologic evidence of cellular toxicity ([6]; 0.05 mg dose): without any histologic evidence of cellular toxicity
- Peri-implant bone relative to intramedullary canal size, overall Mean (95% CI) ([6]; HA coated implants dosed with 0.05 mg ZA, 12 weeks, 24 diaphyseal sections, 8 implants): 32.2 (21.7 to 43.0) %
- Mean extent of bone ingrowth, overall Mean (95% CI) ([6]; HA coated implants dosed with 0.05 mg ZA, 12 weeks, 54 sections, 8 implants): 19.8 (16.9 to 22.6) %
- # Bone Islands, by dog [6, 9]: 109 and 155 and 206 and 131
- Bone Island Size, by dog [6, 9]: 0.033 mm^2 and 0.016 mm^2 (2×) and 0.028 mm^2
- Mean extent of bone ingrowth, by dog ([6]; individual ZA dogs 1-4, HA coated implants dosed with 0.05 mg ZA, 12 weeks): 16.0% and 20.3% (2×) and 22.6%
- Peri-implant bone relative to intramedullary canal size, by dog ([6]; individual ZA dogs 1-4, HA coated implants dosed with 0.05 mg ZA, 12 weeks, diaphyseal sections): 19.8% and 38.5% and 30.4% and 40.0%
- bone formation on increasing the dosage of ZA ([6]; total ZA doses of 0.2 mg and 0.4 mg, relative to 0.05 mg): more bone formation around and within the implant
- complications or systemic illness related to the ZA administration ([6]; two HA coated implants dosed with 0.05 mg ZA per dog, 12 weeks): No dogs had any complications or systemic illness
- effect on osteopenia and regenerate bone (distraction osteogenesis; one or two doses of ZA): abolished osteopenia and increased regenerate volume, mineralization and strength
- bone formation rate (regenerate bone / callus): reduced
- potency relative to alendronate (bone resorption; Green 2001, Li and Davis 2003): 250 times
- potency relative to pamidronate (bone resorption; Green 2001, Li and Davis 2003): 100 times
- potency at inhibiting bone resorption relative to second generation bisphosphonates (in words) (bone resorption): even more potent

Structure (SMILES): NCCCC(O)(P(=O)(O)O)P(=O)(O)O [alendronate]
- effect on alveolar bone resorption (alveolar bone resorption): reduce alveolar bone resorption
- effect on soft tissue forming from resorptive remodeling due to repetitive implant motion [7]: reduces the amount of soft tissue

Structure (SMILES): O=P(O)(O)C(Cl)(Cl)P(=O)(O)O [clodronate]
- effect on migration of knee prostheses [8]: reduced migration of knee prostheses

Structure (SMILES): CCCCCN(C)CCC(O)(P(=O)(O)O)P(=O)(O)O [ibandronate]
- potency at inhibiting bone resorption relative to second generation bisphosphonates (in words) (bone resorption): even more potent

Structure (SMILES): NCCC(O)(P(=O)(O)O)P(=O)(O)O [pamidronate]
- effect on disuse osteopenia and regenerate bone (distraction osteogenesis; single postoperative intravenous dose of pamidronate (3 mg/kg)): decreased the disuse osteopenia normally associated with lengthening and increased the amount and density of the regenerate bone

Structure (SMILES): O=P(O)(O)C(O)(Cc1cccnc1)P(=O)(O)O [risendronate]
- potency at inhibiting bone resorption relative to second generation bisphosphonates (in words) (bone resorption): even more potent
